Literature values as cited in patent publication US6525025B2, “Gamma-ketoacid dipeptides as inhibitors of caspase-3” (Merck Frosst Canada & Co., priority 2000, dated 2003).

Legend:
[1] = biological target: T1, caspase-3 (Homo sapiens, UniProt P42574)
T1 sequence (P42574 29-175 limits assumed): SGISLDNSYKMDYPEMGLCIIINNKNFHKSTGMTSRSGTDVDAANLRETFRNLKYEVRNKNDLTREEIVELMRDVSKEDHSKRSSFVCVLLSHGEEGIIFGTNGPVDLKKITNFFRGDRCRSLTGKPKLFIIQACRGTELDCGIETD
T1 sequence (P42574 176-277 limits assumed): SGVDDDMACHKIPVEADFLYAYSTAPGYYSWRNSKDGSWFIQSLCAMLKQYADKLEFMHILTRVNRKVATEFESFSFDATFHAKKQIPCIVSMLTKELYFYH

[2] = biological target: T2, caspase-1 (Homo sapiens, UniProt P29466)
T2 sequence (P29466 120-297 limits assumed): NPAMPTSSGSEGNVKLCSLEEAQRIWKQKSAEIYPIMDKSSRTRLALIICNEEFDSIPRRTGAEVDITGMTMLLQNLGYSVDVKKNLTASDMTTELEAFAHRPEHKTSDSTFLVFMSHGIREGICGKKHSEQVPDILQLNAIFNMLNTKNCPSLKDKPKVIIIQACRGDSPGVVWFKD
T2 sequence (P29466 317-404 limits assumed): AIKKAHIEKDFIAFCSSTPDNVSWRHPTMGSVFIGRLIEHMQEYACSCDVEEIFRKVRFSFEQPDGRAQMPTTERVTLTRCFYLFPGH

For Ac-YVAD-CHO, the Ki [1] is listed as 12 µM and the Ki [2] is listed as under 0.001 µM.
